The text below walks through data of patent US9789096B2, “Methods and compositions for selective and targeted cancer therapy” (Board of Regents of the University of Texas System, priority 2013, dated 2017).

One data set concerns H460. Description: Cell viability dose-response, H460. Conditions: Homo sapiens, NCI-H460; 12-point dose-response starting at 50 micromolar, 3-fold increments, in duplicate; read-out: toxicity data, H460. The format is cell-based. The method in brief:
(§1)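 Steps: seed cells to 15% confluence in RPMI-1640 supplemented with 5% fetal bovine serum and 2 mM glutamine; add compound across a concentration range; incubate 4 days; measure total ATP with CellTiter-Glo. IC50 is derived from the curve.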

Another data set concerns H2073. Kind of data set: Cell viability dose-response, H2073. The settings on record: Homo sapiens, NCI-H2073, 12-point dose-response starting at 50 micromolar, 3-fold increments, in duplicate; read-out: toxicity data, H2073. The data set is classed as cell-based, human. The method in brief:
as §1

The subject of the next data set is HCC95. Kind of data set: Cell viability dose-response, HCC95. The format is cell-based. The settings on record: Homo sapiens, 12-point dose-response starting at 50 micromolar, 3-fold increments, in duplicate, read-out: toxicity data, HCC95. The method in brief: as §1
The subject of a further data set is H2122. Description: Cell viability dose-response, H2122. The format is cell-based, human. The settings on record: Homo sapiens, NCI-H2122, 12-point dose-response starting at 50 micromolar, 3-fold increments, in duplicate; read-out: toxicity data, H2122. In outline:
(§2)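 Viability read as total ATP (Cell Titer Glo) following 4 days' compound exposure, with IC50 derived from dose-response curves. Duplicate 12-point series, top concentration 50 micromolar with 3-fold steps, on cells seeded at 15% confluence in RPMI-1640, 5% FBS, 2 mM L-glutamine.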

The subject of another data set is H2009. Description: Cell viability dose-response, H2009. Conditions: Homo sapiens, NCI-H2009; 12-point dose-response starting at 50 micromolar, 3-fold increments, in duplicate; read-out: toxicity data, H2009. The format is cell-based, human. The method in brief: as §1
The test system of data set [1] is HCC4017. Description: Cell viability dose-response, HCC4017. The settings on record: Homo sapiens, HCC4017, 12-point dose-response starting at 50 micromolar, 3-fold increments, in duplicate; read-out: toxicity data, HCC4017. The format is cell-based, human. In outline:
as §1

In the next data set the test system is HBEC30KT. Description: Cell viability (ATP, Cell Titer Glo, 4 days), HBEC30KT. The format is cell-based, human. Conditions: Homo sapiens, 12-point dose-response starting at 50 micromolar, 3-fold increments, in duplicate; read-out: toxicity data, HBEC30KT.
The next data set relates to HCC44. Description: Cell viability dose-response, HCC44. The data set is classed as cell-based, human. Conditions: Homo sapiens, HCC44, 12-point dose-response starting at 50 micromolar, 3-fold increments, in duplicate; read-out: toxicity data, HCC44. In outline: as §1
For a further data set, the system named is H1819. Description: Cell viability dose-response, H1819. The format is cell-based, human. Conditions: Homo sapiens, NCI-H1819, 12-point dose-response starting at 50 micromolar, 3-fold increments, in duplicate; read-out: toxicity data, H1819. The method in brief:
as §2

The subject of a further data set is H2122 cells. Description: Metabolism by sensitive cells (HPLC/MS/MS). The data set is classed as in vitro ADME, human. On the procedure: (§3) FIGS. 9A-9D. Selective toxins selectively cross-link to SCD1 in sensitive cells and are selectively metabolized in sensitive cells. FIG. 9A. 12 NSCLC cell lines were incubated with SW208108 and processed as described in FIG. 7. […] FIG. 9B. […] FIG. 9C. […] Demethylation is the anticipated mode of metabolism. FIG. 9D. A representative benzothiazole is demethylated by sensitive cell lines. […] Values in FIGS. 9C and 9D were obtained by tandem HPLC/MS/MS.
(§4) In this context, 12 different NSCLC cell lines were treated with SW208108, lysed and clicked to a dye as previously described. […] To understand how SW208108 could selectively cross-link to SCD1 within some cell lines that expressed the enzyme but not other cell lines that expressed the same enzyme, we investigated the stability of a representative oxalamide in the presence of a sensitive and insensitive cell line. […] Similarly, a representative benzothiazole was metabolized by H2122 cells through, at least in part, the loss of the O-methyl group (FIG. 9D).

The subject of the next data set is H1155. Kind of data set: Cell viability dose-response, H1155. The data set is classed as cell-based. Conditions: Homo sapiens, NCI-H1155; 12-point dose-response starting at 50 micromolar, 3-fold increments, in duplicate; read-out: toxicity data, H1155. The method in brief: as §1
In a further data set the test system is H1993. Description: Cell viability dose-response, H1993. The format is cell-based. Conditions: Homo sapiens, NCI-H1993; 12-point dose-response starting at 50 micromolar, 3-fold increments, in duplicate; read-out: toxicity data, H1993. In outline:
as §1

Data set [2] relates to HCC4017. Description: Metabolism by insensitive cells (HPLC/MS/MS). The data set is classed as in vitro ADME, human. How it is done:
as §3, §4

The subject of a further data set is H1395. Description: Cell viability dose-response, H1395. The data set is classed as cell-based. The settings on record: Homo sapiens, NCI-H1395; 12-point dose-response starting at 50 micromolar, 3-fold increments, in duplicate; read-out: toxicity data, H1395. In outline:
as §1

The next data set relates to HCC366. Description: Cell viability dose-response, HCC366. The data set is classed as cell-based. Conditions: Homo sapiens, 12-point dose-response starting at 50 micromolar, 3-fold increments, in duplicate, read-out: toxicity data, HCC366. On the procedure: FIG. 6A. […] Cell viability is plotted vs. compound concentration. Compound was added to cells plated at 15% confluence in 96-well plates in RPMI-1640 media supplemented with 5% Fetal Bovine Serum and 2 mM L-Glutamine. After 4 days of incubation, ATP levels were measured using Cell Titer Glo (Promega). Data are presented as the average of 2 replicates ±SEM.
Selectivity may be measured by the half maximal inhibitory concentration (IC50), which, as used herein, is a measure of the effectiveness of a compound in killing cells. This quantitative measure indicates how much of a particular compound is needed to kill a particular cell population by half (e.g., as indicated by the amount of ATP). […] The IC50 can be determined by constructing a dose-response curve. The lower the IC50, the higher the potency, and the greater the difference between IC50 values for different cell lines (e.g., sensitive lines vs. insensitive lines, and sensitive lines vs. normal lines) the greater the selectivity. […]
With this information, we synthesized and tested a series of small molecules derived in conception from the oxalamide and chromone scaffold including N-acyl ureas, as shown in Tables 6-8. Each compound was tested in a 12-point dose-response study starting at 50 micromolar and decreasing in 3-fold increments to sub-nanomolar concentrations, in duplicate. Additionally, one or more additional cell line was tested in the same way.

As to `COc1ccc(CCNC(=O)C(=O)Nc2cccc(Cl)c2)cc1` [SW027950], the IC50 in the data set on H460 is 3.9 µM; with H2073, 1.4 µM; in the data set on HCC95, 0.35 µM; in the data set with H2122 it was 0.35 µM; in the data set with H2009, 20.3 µM; in the data set with HCC4017 [1] it was at least 50 µM. In addition, the IC50 in the data set with HBEC30KT was 34 µM; in the data set with HCC44, 34 µM; in the data set with H1819, at least 50 µM; in the data set with H1155, 50 µM; in the data set with H1993 it was 50 µM; in the data set on H1395, 50 µM. In addition, the IC50 with HCC366 came to 50 µM. Also, the “metabolism by sensitive H2122 cells” value in the data set with H2122 cells is recorded as “metabolized”. Also, the “stability in the presence of an insensitive cell line” value with HCC4017 [2] was “completely stable”.
